Test results taken from US7811352B2, “Fertilizer compositions and methods of using” (priority 2005, dated 2010).

Assays:
Bermuda grass [1] = assay: Turfgrass quality and color ratings, Bermuda grass fairway (Example 10); format: in vivo; conditions: scale 1-10
Text: (§1) In this Example, the effect of a fertilizer comprising lysine on warm season turfgrass growth was examined. The effects of lysine (HCl) and LIQUID LYSINE on a common type of golf course fairway quality turfgrass (Bermuda grass) were compared with those of urea and Milorganite.
(§2) Fifteen fertilizer treatments comprising three concentrations of each fertilizer composition (Milorganite (N—P—K, 6-2-0), urea (N—P—K, 46-0-0), LIQUID LYSINE (N—P—K, 10-2-1), and both granular and aqueous lysine (HCl) (N—P—K, 15-2-1)) were prepared and applied to 4 replications of Bermuda grass. The aqueous lysine (HCl) was dissolved in water prior to application. Each fertilizer treatment was applied in concentrations of 0.5 lb N/1000 ft^2/month, 1.0 lb N/1000 ft^2/month and 3.0 lb N/1000 ft^2/month. The urea, LIQUID LYSINE and aqueous lysine (HCl) were applied as foliar liquids, while Milorganite and granular lysine (HCl) were applied as granular fertilizers Plot size was 1 m×2 m set up as a randomized complete block. Plots were mowed at 0.5 inches before fertilizer application. Irrigation (0.15 inch) was applied following application. Plots were rated for turfgrass quality and color (scale of 1-10 where 10=dark green turf, 1=dead/brown turf, and 6=minimally acceptable turf) and phytotoxicity (scale of 0-5, where 5=worst, and 2=minimally objectionable) throughout the study period. Quality, color, and phytotoxicity were measured on 2 days before application (day −2) and day 2, day 5, day 15 and day 21 after application. All data was subject to statistical analysis and significant means were determined. Average turfgrass quality ratings for the treatments are presented in Table 9 and the quality results for application rates of 1.0 lb N/1000 ft^2/month are graphically presented in FIG. 4.

Bermuda grass [2] = assay: Phytotoxicity rating, Bermuda grass fairway (Example 10); format: in vivo; conditions: scale 0-5, 5=worst
Text: as §1, §2

[3] = Monthly Rate 0.5 lbs N/1000 ft^2, Day 2
[4] = Monthly Rate 0.5 lbs N/1000 ft^2, Day 2, (HCl)
[5] = Monthly Rate 0.5 lbs N/1000 ft^2, Day 5, (HCl)
[6] = Monthly Rate 0.5 lbs N/1000 ft^2, Day 15, (HCl)
[7] = Monthly Rate 0.5 lbs N/1000 ft^2, Day 21, (HCl)
[8] = Monthly Rate 0.5 lbs N/1000 ft^2, Day −2 (before application)
[9] = Monthly Rate 0.5 lbs N/1000 ft^2, Day −2 (before application), (HCl)
[10] = Monthly Rate 1.0 lbs N/1000 ft^2, Day 2, (HCl)
[11] = Monthly Rate 1.0 lbs N/1000 ft^2, Day 5, (HCl)
[12] = Monthly Rate 1.0 lbs N/1000 ft^2, Day 15
[13] = Monthly Rate 1.0 lbs N/1000 ft^2, Day 15, (HCl)
[14] = Monthly Rate 1.0 lbs N/1000 ft^2, Day 21, (HCl)
[15] = Monthly Rate 1.0 lbs N/1000 ft^2, Day −2 (before application), (HCl)
[16] = Monthly Rate 3.0 lbs N/1000 ft^2, Day 2
[17] = Monthly Rate 3.0 lbs N/1000 ft^2, Day 5
[18] = Monthly Rate 3.0 lbs N/1000 ft^2, Day 5, (HCl)
[19] = Monthly Rate 3.0 lbs N/1000 ft^2, Day 15, (HCl)
[20] = Monthly Rate 3.0 lbs N/1000 ft^2, Day 21, (HCl)
[21] = Monthly Rate 3.0 lbs N/1000 ft^2, Day −2 (before application), (HCl)
[22] = Monthly Rate 0.5 lbs N/1000 ft^2, Day 5
[23] = Monthly Rate 0.5 lbs N/1000 ft^2, Day 15
[24] = Monthly Rate 0.5 lbs N/1000 ft^2, Day 21
[25] = Monthly Rate 1.0 lbs N/1000 ft^2, Day 2
[26] = Monthly Rate 1.0 lbs N/1000 ft^2, Day 5
[27] = Monthly Rate 1.0 lbs N/1000 ft^2, Day 21
[28] = Monthly Rate 1.0 lbs N/1000 ft^2, Day −2 (before application)
[29] = Monthly Rate 3.0 lbs N/1000 ft^2, Day 2, (HCl)
[30] = Monthly Rate 3.0 lbs N/1000 ft^2, Day 15
[31] = Monthly Rate 3.0 lbs N/1000 ft^2, Day 21
[32] = Monthly Rate 3.0 lbs N/1000 ft^2, Day −2 (before application)

With Cl.NCCCC[C@H](N)C(=O)O [Lys (HCl) 15% N (aq), lysine (HCl)] the “Quality Ratings - Bermuda Grass” value (Bermuda grass [1]; [3]) was 7.3b, the “Color Ratings - Bermuda Grass” value (Bermuda grass [1]; [4]) was 7.3 and the “Color Ratings - Bermuda Grass” value (Bermuda grass [1]; [5]) was 7.8 g·days. For the same molecule, the “Quality Ratings - Bermuda Grass” value (Bermuda grass [1]; [5]) was 7.1 days, the “Color Ratings - Bermuda Grass” value (Bermuda grass [1]; [6]) was 7.6cde and the “Quality Ratings - Bermuda Grass” value (Bermuda grass [1]; [6]) was 7.8de. For the same molecule, the “Color Ratings - Bermuda Grass” value (Bermuda grass [1]; [7]) was 8.0bc, the “Quality Ratings - Bermuda Grass” value (Bermuda grass [1]; [7]) was 8.0cde and the “Color Ratings - Bermuda Grass” value (Bermuda grass [1]; [8]) was 6.5. The “Quality Ratings - Bermuda Grass” value (Bermuda grass [1]; [9]) was 6.3, the “Color Ratings - Bermuda Grass” value (Bermuda grass [1]; [10]) was 7.3 and the “Quality Ratings - Bermuda Grass” value (Bermuda grass [1]; [10]) was 7.0b. The “Color Ratings - Bermuda Grass” value (Bermuda grass [1]; [11]) was 8.1cde, the “Quality Ratings - Bermuda Grass” value (Bermuda grass [1]; [11]) was 7.8bcd and the “Color Ratings - Bermuda Grass” value (Bermuda grass [1]; [12]) was 7.8cd. For the same molecule, the “Quality Ratings - Bermuda Grass” value (Bermuda grass [1]; [13]) was 7.9de, the “Color Ratings - Bermuda Grass” value (Bermuda grass [1]; [14]) was 8.0bc and the “Quality Ratings - Bermuda Grass” value (Bermuda grass [1]; [14]) was 8.0cde. For the same molecule, the “Color Ratings - Bermuda Grass” value (Bermuda grass [1]; [15]) was 6.5, the “Quality Ratings - Bermuda Grass” value (Bermuda grass [1]; [15]) was 6.4 and the “Color Ratings - Bermuda Grass” value (Bermuda grass [1]; [16]) was 7.3. The “Quality Ratings - Bermuda Grass” value (Bermuda grass [1]; [16]) was 7.4b, the “Color Ratings - Bermuda Grass” value (Bermuda grass [1]; [17]) was 9.0a and the “Quality Ratings - Bermuda Grass” value (Bermuda grass [1]; [18]) was 8.3ab. For the same molecule, the “Color Ratings - Bermuda Grass” value (Bermuda grass [1]; [19]) was 8.3ab, the “Quality Ratings - Bermuda Grass” value (Bermuda grass [1]; [19]) was 8.8b and the “Color Ratings - Bermuda Grass” value (Bermuda grass [1]; [20]) was 8.8a. For the same molecule, the “Quality Ratings - Bermuda Grass” value (Bermuda grass [1]; [20]) was 8.5ab, the “Color Ratings - Bermuda Grass” value (Bermuda grass [1]; [21]) was 6.1 and the “Quality Ratings - Bermuda Grass” value (Bermuda grass [1]; [21]) was 6.0. The “Phytotoxicity - Bermuda Grass” value (Bermuda grass [2]; [3]) was 0.0b, the “Phytotoxicity - Bermuda Grass” value (Bermuda grass [2]; [22]) was 0 and the “Phytotoxicity - Bermuda Grass” value (Bermuda grass [2]; [23]) was 0. For the same molecule, the “Phytotoxicity - Bermuda Grass” value (Bermuda grass [2]; [24]) was 0, the “Phytotoxicity - Bermuda Grass” value (Bermuda grass [2]; [8]) was 0 and the “Phytotoxicity - Bermuda Grass” value (Bermuda grass [2]; [25]) was 0.0b. The “Phytotoxicity - Bermuda Grass” value (Bermuda grass [2]; [26]) was 0, the “Phytotoxicity - Bermuda Grass” value (Bermuda grass [2]; [12]) was 0 and the “Phytotoxicity - Bermuda Grass” value (Bermuda grass [2]; [27]) was 0. For the same molecule, the “Phytotoxicity - Bermuda Grass” value (Bermuda grass [2]; [28]) was 0, the “Phytotoxicity - Bermuda Grass” value (Bermuda grass [2]; [29]) was 0.3ab and the “Phytotoxicity - Bermuda Grass” value (Bermuda grass [2]; [17]) was 0. For the same molecule, the “Phytotoxicity - Bermuda Grass” value (Bermuda grass [2]; [30]) was 0, the “Phytotoxicity - Bermuda Grass” value (Bermuda grass [2]; [31]) was 0 and the “Phytotoxicity - Bermuda Grass” value (Bermuda grass [2]; [32]) was 0.
Cl.NCCCC[C@H](N)C(=O)O [Lys (HCl) 15% N (gran), lysine (HCl)] was tested, and the “Quality Ratings - Bermuda Grass” value (Bermuda grass [1]; [3]) was 7.3b, the “Color Ratings - Bermuda Grass” value (Bermuda grass [1]; [4]) was 7.5 and the “Color Ratings - Bermuda Grass” value (Bermuda grass [1]; [5]) was 8.0def. The “Quality Ratings - Bermuda Grass” value (Bermuda grass [1]; [5]) was 7.6bcd, the “Color Ratings - Bermuda Grass” value (Bermuda grass [1]; [6]) was 7.1e and the “Quality Ratings - Bermuda Grass” value (Bermuda grass [1]; [6]) was 7.4e. For the same molecule, the “Color Ratings - Bermuda Grass” value (Bermuda grass [1]; [7]) was 8.3b, the “Quality Ratings - Bermuda Grass” value (Bermuda grass [1]; [7]) was 7.9def and the “Color Ratings - Bermuda Grass” value (Bermuda grass [1]; [8]) was 6.5. The “Quality Ratings - Bermuda Grass” value (Bermuda grass [1]; [9]) was 6.5, the “Color Ratings - Bermuda Grass” value (Bermuda grass [1]; [10]) was 7.9 and the “Quality Ratings - Bermuda Grass” value (Bermuda grass [1]; [10]) was 7.6ab. The “Color Ratings - Bermuda Grass” value (Bermuda grass [1]; [11]) was 8.3bcd, the “Quality Ratings - Bermuda Grass” value (Bermuda grass [1]; [11]) was 7.9abc and the “Color Ratings - Bermuda Grass” value (Bermuda grass [1]; [12]) was 7.8cd. The “Quality Ratings - Bermuda Grass” value (Bermuda grass [1]; [13]) was 8.1cd, the “Color Ratings - Bermuda Grass” value (Bermuda grass [1]; [14]) was 8.3b and the “Quality Ratings - Bermuda Grass” value (Bermuda grass [1]; [14]) was 8.1bcd. For the same molecule, the “Color Ratings - Bermuda Grass” value (Bermuda grass [1]; [15]) was 6.4, the “Quality Ratings - Bermuda Grass” value (Bermuda grass [1]; [15]) was 6.3 and the “Color Ratings - Bermuda Grass” value (Bermuda grass [1]; [16]) was 7.3. For the same molecule, the “Quality Ratings - Bermuda Grass” value (Bermuda grass [1]; [16]) was 7.4b, the “Color Ratings - Bermuda Grass” value (Bermuda grass [1]; [17]) was 9.0a and the “Quality Ratings - Bermuda Grass” value (Bermuda grass [1]; [18]) was 8.5a. For the same molecule, the “Color Ratings - Bermuda Grass” value (Bermuda grass [1]; [19]) was 8.6a, the “Quality Ratings - Bermuda Grass” value (Bermuda grass [1]; [19]) was 9.4a and the “Color Ratings - Bermuda Grass” value (Bermuda grass [1]; [20]) was 8.9a. For the same molecule, the “Quality Ratings - Bermuda Grass” value (Bermuda grass [1]; [20]) was 8.6a, the “Color Ratings - Bermuda Grass” value (Bermuda grass [1]; [21]) was 6.4 and the “Quality Ratings - Bermuda Grass” value (Bermuda grass [1]; [21]) was 6.1. For the same molecule, the “Phytotoxicity - Bermuda Grass” value (Bermuda grass [2]; [3]) was 0.0b, the “Phytotoxicity - Bermuda Grass” value (Bermuda grass [2]; [22]) was 0 and the “Phytotoxicity - Bermuda Grass” value (Bermuda grass [2]; [23]) was 0. For the same molecule, the “Phytotoxicity - Bermuda Grass” value (Bermuda grass [2]; [24]) was 0, the “Phytotoxicity - Bermuda Grass” value (Bermuda grass [2]; [8]) was 0 and the “Phytotoxicity - Bermuda Grass” value (Bermuda grass [2]; [25]) was 0.0b. The “Phytotoxicity - Bermuda Grass” value (Bermuda grass [2]; [26]) was 0, the “Phytotoxicity - Bermuda Grass” value (Bermuda grass [2]; [12]) was 0 and the “Phytotoxicity - Bermuda Grass” value (Bermuda grass [2]; [27]) was 0. For the same molecule, the “Phytotoxicity - Bermuda Grass” value (Bermuda grass [2]; [28]) was 0, the “Phytotoxicity - Bermuda Grass” value (Bermuda grass [2]; [29]) was 0.5a and the “Phytotoxicity - Bermuda Grass” value (Bermuda grass [2]; [17]) was 0. The “Phytotoxicity - Bermuda Grass” value (Bermuda grass [2]; [30]) was 0, the “Phytotoxicity - Bermuda Grass” value (Bermuda grass [2]; [31]) was 0 and the “Phytotoxicity - Bermuda Grass” value (Bermuda grass [2]; [32]) was 0.
